# Measurements as given in patent US20210251991A1, “SUBSTITUTED 2,2'-BIPYRIMIDINYL COMPOUNDS, ANALOGUES THEREOF, AND METHODS USING SAME” (priority 2018, published 2021).
# Tested on: HBsAg in HepG2.2.15 cells
# Experiment: HBsAg assay: inhibition of HBsAg in HepG2.2.15 cells (chemiluminescence immunoassay of supernatant)
# Format: cell-based, hepatitis B virus
# Details: Hepatitis B virus, HepG2.2.15, 144 h, read-out: sAg EC50, HepG2.2.15 cells, supernatant collected at day 6 after exposure, HBsAg CLIA
# Method in brief: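 HepG2.2.15 cells treated with serially diluted compounds (0.5% DMSO), medium and compound refreshed after 2-3 days; supernatant HBsAg measured by chemiluminescence immunoassay at day 6. EC50 from dose-response curves; viability assessed in parallel by CellTiter-Glo.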
row,SMILES,EC50
1,"CCC1c2ccccc2CCN1c1cnc2c(ccc3cccnc32)c1 (centres unmarked) [Example 122, 3-(1-Ethyl-3,4-dihydroisoquinolin-2(1H)-yl)-1,10-phenanthroline]",1.2 µM
2,"CCC1c2cc(OC)c(OC)cc2CN1c1nc(-c2ncccn2)nc2ccoc12 (centres unmarked) [Example 91, 4-(1-Ethyl-5,6-dimethoxyisoindolin-2-yl)-2-(pyrimidin-2-yl)furo[3,2-d]pyrimidine]",0.15 µM
3,"CCC1c2cc(F)c(OC)cc2CN1c1cnc(C(=O)NS(C)(=O)=O)nc1 (centres unmarked) [Example 101, 5-(1-Ethyl-6-fluoro-5-methoxyisoindolin-2-yl)-N-(methylsulfonyl)pyrimidine-2-carboxamide]",0.65 µM
4,"CCC1c2ccccc2CCN1c1cnc2c(NC)nccc2c1 (centres unmarked) [Example 124, 3-(1-Ethyl-3,4-dihydroisoquinolin-2(1H)-yl)-N-methyl-1,7-naphthyridin-8-amine]",22 µM
5,"CCC1c2cc(OC)c(OC)cc2CN1c1nc(-c2ncccn2)ncc1C (centres unmarked) [Example 58, 1-Ethyl-5,6-dimethoxy-2-(5-methyl-[2,2′-bipyrimidin]-4-yl)isoindoline]",0.002 µM
6,"c1cnc(-c2nccc(N3CC4CCC3c3ccccc34)n2)nc1 (centres unmarked) [Example 79, 10-([2,2′-Bipyrimidin]-4-yl)-1,2,3,4-tetrahydro-1,4-(epiminomethano)naphthalene]",6 µM
7,"CCC1c2cc(F)c(F)cc2CN1c1ccnc(C(=O)O)n1 (centres unmarked) [Example 95, 4-(1-Ethyl-5,6-difluoroisoindolin-2-yl)pyrimidine-2-carboxylic Acid]",2 µM
8,"CCC1c2ccccc2CCN1c1cnc(-c2ncccn2)nc1 (centres unmarked) [Example 10, 2-([2,2′-Bipyrimidin]-5-yl)-1-ethyl-1,2,3,4-tetrahydroisoquinoline]",0.25 µM
9,"COc1cc2c(cc1OC)C1(CCC1)N(c1cnc(-c3ncccn3)nc1)CC2 [Example 18, 2′-([2,2′-Bipyrimidin]-5-yl)-6′,7′-dimethoxy-3′,4′-dihydro-2′H-spiro[cyclobutane-1,1′-isoquinoline]]",50 µM
10,"CCC1c2cc(F)c(OC)cc2CN1c1cnc(C(=O)NS(C)(=O)=O)nc1 (single isomer, unassigned) [Example 102, 5-(1-Ethyl-6-fluoro-5-methoxyisoindolin-2-yl)-N-(methylsulfonyl)pyrimidine-2-carboxamide]",0.62 µM
11,"COC(=O)CC1c2cc(OC)c(OC)cc2CCN1c1cnc(-c2ncccn2)nc1 (centres unmarked) [Example 26, Methyl 2-(2-([2,2′-bipyrimidin]-5-yl)-6,7-dimethoxy-1,2,3,4-tetrahydroisoquinolin-1-yl) acetate]",1.2 µM
12,"CCC1c2cc(OC)c(F)c(F)c2CCN1c1cnc(-c2ncccn2)nc1 (centres unmarked) [Example 29, 1-Ethyl-5,6-difluoro-7-methoxy-2-(2-pyrimidin-2-ylpyrimidin-5-yl)-3,4-dihydro-1H-isoquinoline]",0.17 µM
13,"CCC1c2cc(F)c(OC)cc2CCN1c1cnc2c(=O)n(C)cnc2c1 (centres unmarked) [Example 125, 7-(1-Ethyl-7-fluoro-6-methoxy-3,4-dihydroisoquinolin-2(1H)-yl)-3-methylpyrido[3,2-d]pyrimidin-4(3H)-one]",1.6 µM
14,"CCC1c2cc(OC)c(F)cc2CN1c1ccnc(-c2ncccn2)n1 (centres unmarked) [Example 76, 2-([2,2′-Bipyrimidin]-4-yl)-1-ethyl-5-fluoro-6-methoxyisoindoline]",0.12 µM
15,"CCC1c2cc(F)c(OC)cc2CN1c1nc(-c2ncccn2)ncc1F (centres unmarked) [Example 70, 1-Ethyl-6-fluoro-2-(5-fluoro-[2,2′-bipyrimidin]-4-yl)-5-methoxyisoindoline]",0.005 µM
16,"Fc1cc(F)c2c(c1)CN(c1ccnc(-c3ncccn3)n1)CC2 [Example 2, 2-([2,2′-Bipyrimidin]-4-yl)-5,7-difluoro-1,2,3,4-tetrahydroisoquinoline]",1.6 µM
17,"CCC1c2ccc(F)c(F)c2CCN1c1ccnc(-c2ncccn2)n1 (centres unmarked) [Example 39, 1-Ethyl-5,6-difluoro-2-(2-pyrimidin-2-ylpyrimidin-4-yl)-3,4-dihydro-1H-isoquinoline]",0.59 µM
18,"CC1c2ccc(F)c(F)c2CCN1c1cnc2c(ccc3cccnc32)c1 (centres unmarked) [Example 123, 3-(5,6-Difluoro-1-methyl-3,4-dihydroisoquinolin-2(1H)-yl)-1,10-phenanthroline]",0.44 µM
19,"CCC1c2cc(OC)c(OC)cc2CN1c1ccnc(-c2ncccn2)n1 (centres unmarked) [Example 55, 2-([2,2′-Bipyrimidin]-4-yl)-1-ethyl-5,6-dimethoxyisoindoline]",0.024 µM

# Same assay, conditions: read-out: sAg EC50; HepG2.2.15 cells, supernatant collected at day 6 after exposure, HBsAg CLIA
row,SMILES,EC50
1,"CCC1c2c(OC)ccc(F)c2CCN1c1ccnc(-c2ncccn2)n1 (single isomer, unassigned) [Example 43, 1-Ethyl-5-fluoro-8-methoxy-2-(2-pyrimidin-2-ylpyrimidin-4-yl)-3,4-dihydro-1H-isoquinoline]",0.06 µM
2,"CCC1c2cc(F)c(OC)cc2CN1c1nc(-c2ncccn2)ncc1C (single isomer, unassigned) [Example 68, 1-Ethyl-6-fluoro-5-methoxy-2-(5-methyl-[2,2′-bipyrimidin]-4-yl)isoindoline]",0.002 µM
3,"CCC1c2cc(F)c(OC)cc2CN1c1ccnc(C(=O)NC)n1 (single isomer, unassigned) [Example 110, 4-(1-Ethyl-6-fluoro-5-methoxyisoindolin-2-yl)-N-methylpyrimidine-2-carboxamide]",3 µM
4,"CCC1c2cc(F)c(OC)cc2CCN1c1cnc(-c2ncccn2)nc1 (single isomer, unassigned) [Example 133, 2-(2,2′-Bipyrimidin-5-yl)-1-ethyl-7-fluoro-6-methoxy-1,2,3,4-tetrahydroisoquinoline]",0.003 µM
5,"CCC1c2cc(F)c(OC)cc2CCN1c1ccnc(-c2ncccn2)n1 (single isomer, unassigned) [Example 128, 2-(2,2′-Bipyrimidin-4-yl)-1-ethyl-7-fluoro-6-methoxy-1,2,3,4-tetrahydroisoquinoline]",0.082 µM
6,"CCC1c2ccccc2CCN1c1cnc(-c2ncccn2)nc1 (single isomer, unassigned) [Example 12, 2-([2,2′-Bipyrimidin]-5-yl)-1-ethyl-1,2,3,4-tetrahydroisoquinoline]",0.19 µM
7,"CCC1c2cc(OC)c(F)c(F)c2CCN1c1cnc(-c2ncccn2)nc1 (single isomer, unassigned) [Example 30, 1-Ethyl-5,6-difluoro-7-methoxy-2-(2-pyrimidin-2-ylpyrimidin-5-yl)-3,4-dihydro-1H-isoquinoline]",0.13 µM
